Measured values as given in US12514849B2, “Pharmaceutical formulations containing relacorilant, a heteroaryl-ketone fused azadecalin compound” (Corcept Therapeutics Incorporated, priority 2018, dated 2026).

Assays:
[1] = Compatibility/stability of relacorilant with excipients at 40° C./75% RH and 60° C.; type: physicochemical
Experimental: The stability of relacorilant in a series of potential excipients was also examined for two weeks at 40° C. at 75% relative humidity, and at 60° C., including in formulations of Table I. The predominant degradation path was through formation of the aromatic decarbonylation of relacorilant with both propylene glycol monocaprylate and lauroyl polyoxyl-32 glyceride excipients. Relacorilant stability was good with both these excipients.

[2] = Stability of relacorilant to pH, moisture and light; type: physicochemical
Experimental: Relacorilant stability and compatibility with various excipients was tested and suitable excipients were identified. […] Lauryl polyoxyl-32 glycerides (Gelucire 44/14, available from Gattefosse USA, New Jersey) in place of the stearoyl polyoxyl-32 glycerides were then used. […] This formulation was tested for stability. Stability testing included testing of some formulations for up to one year.

- purity (% relacorilant of relacorilant plus relacorilant-derived impurities) ([1]; in lauroyl polyoxyl-32 glycerides, 40° C./75% RH, 1 week): 97.64%
- purity (% relacorilant of relacorilant plus relacorilant-derived impurities) ([1]; in lauroyl polyoxyl-32 glycerides, 40° C./75% RH, 2 week): 97.55%
- purity (% relacorilant of relacorilant plus relacorilant-derived impurities) ([1]; in lauroyl polyoxyl-32 glycerides, 60° C., 1 week): 97.22%
- purity (% relacorilant of relacorilant plus relacorilant-derived impurities) ([1]; in lauroyl polyoxyl-32 glycerides, 60° C., 2 week): 96.77%
- purity (% relacorilant of relacorilant plus relacorilant-derived impurities) ([1]; in lauroyl polyoxyl-32 glycerides, Control): 98.09%
- purity (% relacorilant of relacorilant plus relacorilant-derived impurities) ([1]; in lauroyl polyoxyl-32 glycerides, T0): 98.13%
- purity (% relacorilant of relacorilant plus relacorilant-derived impurities) ([1]; in propylene glycol monocaprylate, 40° C./75% RH, 1 week): 98.00%
- purity (% relacorilant of relacorilant plus relacorilant-derived impurities) ([1]; in propylene glycol monocaprylate, 40° C./75% RH, 2 week): 97.84%
- purity (% relacorilant of relacorilant plus relacorilant-derived impurities) ([1]; in propylene glycol monocaprylate, 60° C., 1 week): 97.51%
- purity (% relacorilant of relacorilant plus relacorilant-derived impurities) ([1]; in propylene glycol monocaprylate, 60° C., 2 week): 96.65%
- purity (% relacorilant of relacorilant plus relacorilant-derived impurities) ([1]; in propylene glycol monocaprylate, Control): 98.03%
- purity (% relacorilant of relacorilant plus relacorilant-derived impurities) ([1]; in propylene glycol monocaprylate, T0): 98.09%
- sensitivity to moisture and light [2]: sensitive to both moisture and light
- stability in acidic aqueous solutions ([2]; acidic aqueous solutions): stable
- stability under basic conditions ([2]; basic conditions): sensitive to basic conditions
- stability over time in formulations having basic pH ([2]; basic pH, particularly pH greater than 8, versus neutral or acidic pH): significantly less stable
- stability in neutral solutions ([2]; neutral solutions at elevated temperatures): degrade over time
Compound: Cn1cc(S(=O)(=O)N2CCC3=Cc4c(cnn4-c4ccc(F)cc4)C[C@]3(C(=O)c3cc(C(F)(F)F)ccn3)C2)cn1 [Relacorilant, (R)-(1-(4-fluorophenyl)-6-((1-methyl-1H-pyrazol-4-yl)sulfonyl)-4,4a,5,6,7,8-hexahydro-1H-pyrazolo[3,4-g]isoquinolin-4a-yl)(4-(trifluoromethyl)pyridin-2-yl)methanone]
